The source of these data is patent US5128493A, “Platinum complexes” (Nippon Kayaku Kabushiki Kaisha, priority 1987, dated 1992).

Some results are limits rather than exact numbers.

The first data set relates to Mouse leukemia L1210 cells. Kind of data set: Growth inhibitory activity against cultured tumor cells, L1210. Type of data set: cell-based. The settings on record: Tumor cell L1210; RPMI 1640, 10% fetal calf serum. As to the method:
(§1) Test of Growth Inhibitory Activity Against Various Kinds of Cultured Tumor Cells
(§2) Mouse leukemia L1210 cells were cultured in a RPMI 1640 medium containing 10% of fetal calf serum and mouse Lewis lung carcinoma (LL) cells were cultured in a RPMI 1640 medium containing 10% fetal calf serum and 100 μg/ml of Kanamycin.
One may read the IC50 as the concentration that gives 50% inhibition. As to “cis-4-Oxacyclohexane-1,1-dicarboxylato-2,3-dimethyl-1,4-butanediamine Platinum [Compound No. 6]”, the IC50 is 0.11 µg/mL.

“cis-Cyclobutane-1,1-dicarboxylato-2,3-dimethyl-1,4-butanediamine Platinum [Compound No. 4]”: the IC50 was 1.01 µg/mL.

Compound “cis-Dichloro-2,3-dimethyl-1,4-butanediamine Platinum [Compound No. 1]” had an IC50 of 0.04 µg/mL.

For the compound “cis-Dimethylmalonato-2,3-dimethyl-1,4-butanediamine Platinum [Compound No. 5]”, the IC50 is 0.40 µg/mL.

Turning to “cis-Malonato-2,3-dimethyl-1,4-butanediamine Platinum [Compound No. 3]”, the 50% inhibitory concentration (IC50) is 0.27 µg/mL.

As for “cis-Oxalato-2,3-dimethyl-1,4-butanediamine Platinum [Compound No. 2]”, the half-maximal inhibitory concentration (IC50) is 0.11 µg/mL.

The test system of a further data set is mouse Lewis lung carcinoma (LL) cells. Put plainly: Growth inhibitory activity against cultured tumor cells, LL. Particulars: Tumor cell LL; RPMI 1640, 10% fetal calf serum, 100 μg/ml Kanamycin. Type of data set: cell-based. Here is the method:
as §1, §2
Consider “cis-4-Oxacyclohexane-1,1-dicarboxylato-2,3-dimethyl-1,4-butanediamine Platinum [Compound No. 6]”, for which the IC50 was 1.06 µg/mL.

As to “cis-Cyclobutane-1,1-dicarboxylato-2,3-dimethyl-1,4-butanediamine Platinum [Compound No. 4]”, the IC50 was 2.10 µg/mL.

“cis-Dichloro-2,3-dimethyl-1,4-butanediamine Platinum [Compound No. 1]”: the IC50 turned out to be 0.43 µg/mL.

In the case of “cis-Dimethylmalonato-2,3-dimethyl-1,4-butanediamine Platinum [Compound No. 5]”, the IC50 was determined as 1.06 µg/mL.

Regarding “cis-Malonato-2,3-dimethyl-1,4-butanediamine Platinum [Compound No. 3]”, the half-maximal inhibitory concentration (IC50) was 0.95 µg/mL.

As for “cis-Oxalato-2,3-dimethyl-1,4-butanediamine Platinum [Compound No. 2]”, the concentration for half-maximal inhibition (IC50) is 0.65 µg/mL.

A further data set concerns cis-Platin resistant mouse leukemia L1210 cells. Kind of data set: Growth inhibitory activity against cis-Platin resistant tumor cells, L1210. Format: cell-based. Particulars: Tumor cell L1210; ratio of IC50 for cis-Platin resistant cells to IC50 for non-resistant cells. From the text:
(§3) 1×10^5 mouse leukemia L1210 cells or 1×10^5 mouse leukemia P388 cells were inoculated into the abdominal cavities of CDF1 female mice. […] After 5 days, their tumor cells were inoculated to the abdominal cavities of other CDF1 female mice, and the same treatment was applied.
Consider “cis-Dimethylmalonato-2,3-dimethyl-1,4-butanediamine Platinum [Compound No. 5]”, for which the “IC50 R/IC50” value was 1.4.

For the compound “cis-Malonato-2,3-dimethyl-1,4-butanediamine Platinum [Compound No. 3]”, the “IC50 R/IC50” value worked out at 1.3.

In a further data set the test system is cis-Platin resistant mouse leukemia P388 cells. Put plainly: Growth inhibitory activity against cis-Platin resistant tumor cells, P388. Format: cell-based. Particulars: Tumor cell P388; ratio of IC50 for cis-Platin resistant cells to IC50 for non-resistant cells.
Source text: as §3
Regarding “cis-Dimethylmalonato-2,3-dimethyl-1,4-butanediamine Platinum [Compound No. 5]”, the “IC50 R/IC50” value is 6.2.

On to “cis-Malonato-2,3-dimethyl-1,4-butanediamine Platinum [Compound No. 3]”, for which the “IC50 R/IC50” value was 4.6.

Another data set relates to Mouse Leukemia L1210. Put plainly: Antitumor activity against mouse leukemia L1210 in vivo. Set-up: species or system mouse (female CDF1). Particulars: L1210, mean survival time; i.p. once a day for 5 consecutive days; at optimum dose. Here is the method:
Test of Antitumor Activity Against Mouse Leukemia L1210 in vivo
1×10^5 mouse leukemia L1210 cells were inoculated into the abdominal cavities of 6-week-old female CDF1 mice. From the next day, a compound was administered to them intraperitoneally once a day for 5 consecutive days. Mice of a compound-non-treated group (control group) were administered with physiological saline solution in the same manner. The mean survival time of the compound-treated group and the control group were measured and T/C was calculated from the equation (1): [formula]
In Table 4, max (T/C) means the maximum value of T/C and optimum dose (Opt. dose) means a daily administration amount giving the max (T/C), namely, an optimum daily administration amount.
“cis-Cyclobutane-1,1-dicarboxylato-2,3-dimethyl-1,4-butanediamine Platinum [Compound No. 4]”: the “max (T/C)” value worked out at 328.

As to “cis-Dichloro-2,3-dimethyl-1,4-butanediamine Platinum [Compound No. 1]”, the “max (T/C)” value is 323.

On to “cis-Dimethylmalonato-2,3-dimethyl-1,4-butanediamine Platinum [Compound No. 5]”, for which the “max (T/C)” value was 245.

Take “cis-Malonato-2,3-dimethyl-1,4-butanediamine Platinum [Compound No. 3]”: the “max (T/C)” value came out at 400.

With “cis-Oxalato-2,3-dimethyl-1,4-butanediamine Platinum [Compound No. 2]”, the “max (T/C)” value amounted to 296.

The data set is the same for the next values; noted with them: L1210-bearing female CDF1 mice; i.p. once a day for 5 consecutive days.
As a reminder, the LD50 is the dose at which mortality reaches 50%. On to “cis-Dichloro-2,3-dimethyl-1,4-butanediamine Platinum [Compound No. 1]”, for which the median lethal dose (LD50) is 3.0 mg/kg.

“cis-Oxalato-2,3-dimethyl-1,4-butanediamine Platinum [Compound No. 2]” had an LD50 of 7.2 mg/kg.

Staying with this data set, now noted: L1210; daily amount giving the max (T/C); i.p. once a day for 5 consecutive days.
In turn, `N.N.[Cl][Pt][Cl]` [cis-Platin, cis-dichlorodiammineplatinum, reference compound] displayed an Opt. dose of 4 mg/kg.

“cis-Cyclobutane-1,1-dicarboxylato-2,3-dimethyl-1,4-butanediamine Platinum [Compound No. 4]” showed an Opt. dose of 32.0 mg/kg.

For the compound “cis-Dichloro-2,3-dimethyl-1,4-butanediamine Platinum [Compound No. 1]”, the Opt. dose is given as 2.0 mg/kg.

In turn, “cis-Dimethylmalonato-2,3-dimethyl-1,4-butanediamine Platinum [Compound No. 5]” gave an Opt. dose of 32.0 mg/kg.

Turning to “cis-Malonato-2,3-dimethyl-1,4-butanediamine Platinum [Compound No. 3]”, the Opt. dose stood at 16.0 mg/kg.

The compound “cis-Oxalato-2,3-dimethyl-1,4-butanediamine Platinum [Compound No. 2]” returned an Opt. dose of 4.0 mg/kg.

In the next data set the test system is Mouse Lewis Lung Carcinoma. Kind of data set: Antitumor activity against mouse Lewis lung carcinoma in vivo. Also noted: species or system mouse (male BDF1). The settings on record: Lewis lung carcinoma, median survival time; i.p. once a day for 5 consecutive days; at optimum dose. Here is the method: Test of Antitumor Activity Against Mouse Lewis Lung Carcinoma
1×10^6 mouse Lewis lung carcinoma cells were inoculated into the abdominal cavities of 6-week-old male BDF1 mice. From the next day, a compound was administered to them intraperitoneally once a day for 5 consecutive days. Mice of compound-non-treated group (control group) were administered with physiological saline solution in the same manner. From the median survival time of the compoundtreated group and the control group, T/C was calculated according to the following equation (2): [formula]
In Table 5, max (T/C), and Opt. dose and LD50 mean the same ones in Table 4, respectively.
Turning to “cis-Cyclobutane-1,1-dicarboxylato-2,3-dimethyl-1,4-butanediamine Platinum [Compound No. 4]”, the “max (T/C)” value is given as 144.

Consider “cis-Malonato-2,3-dimethyl-1,4-butanediamine Platinum [Compound No. 3]”, for which the “max (T/C)” value is listed as 234.

The data set is the same for the next values; noted with them: Lewis lung carcinoma-bearing male BDF1 mice; i.p. once a day for 5 consecutive days.
In turn, “cis-Cyclobutane-1,1-dicarboxylato-2,3-dimethyl-1,4-butanediamine Platinum [Compound No. 4]” yielded a 50% lethal dose (LD50) of 48.0 mg/kg.

Staying with this data set, now noted: Lewis lung carcinoma; daily amount giving the max (T/C); i.p. once a day for 5 consecutive days.
Compound “cis-Cyclobutane-1,1-dicarboxylato-2,3-dimethyl-1,4-butanediamine Platinum [Compound No. 4]” registered an Opt. dose of 32.0 mg/kg.

On to “cis-Malonato-2,3-dimethyl-1,4-butanediamine Platinum [Compound No. 3]”, for which the Opt. dose is reported as 32.0 mg/kg.

Tested on in the next data set: not given
Assay: not given
The settings on record: physiological saline.
Regarding “cis-Dichloro-2,3-dimethyl-1,4-butanediamine Platinum [Compound No. 1]”, the “Solubility in physiological saline solution” value is greater than 2 mg/ml.

The data set is the same for the next values; noted with them: water.
Compound “cis-4-Oxacyclohexane-1,1-dicarboxylato-2,3-dimethyl-1,4-butanediamine Platinum [Compound No. 6]” showed a Solubility in water greater than 20 mg/mL.

The compound “cis-Diethylmalonato-2,3-dimethyl-1,4-butanediamine Platinum [Compound No. 8]” came in with a Solubility in water greater than 15 mg/mL.

“cis-Dimethylmalonato-2,3-dimethyl-1,4-butanediamine Platinum [Compound No. 5]”: the Solubility in water is greater than 20 mg/mL.

In turn, “cis-Ethylmalonato-2,3-dimethyl-1,4-butanediamine Platinum [Compound No. 7]” had a Solubility in water greater than 20 mg/mL.

The compound “cis-Malonato-2,3-dimethyl-1,4-butanediamine Platinum [Compound No. 3]” gave a Solubility in water greater than 30 mg/mL.

In the case of “cis-Oxalato-2,3-dimethyl-1,4-butanediamine Platinum [Compound No. 2]”, the Solubility in water was greater than 3 mg/mL.

Tested on in a further data set: not given
Assay: not given
The settings on record: mouse, in vivo, ip.
In the case of “cis-Dichloro-2,3-dimethyl-1,4-butanediamine Platinum [Compound No. 1]”, the Body weight ratio is reported as 0.79.

Consider “cis-Dimethylmalonato-2,3-dimethyl-1,4-butanediamine Platinum [Compound No. 5]”, for which the Body weight ratio was 0.89.

With “cis-Malonato-2,3-dimethyl-1,4-butanediamine Platinum [Compound No. 3]”, the Body weight ratio is 1.00.

In the case of “cis-Oxalato-2,3-dimethyl-1,4-butanediamine Platinum [Compound No. 2]”, the Body weight ratio is reported as 0.77.

Tested on in the next data set: not given
Assay: not given
The settings on record: cis-Platin, prior art description; cited from earlier work.
`N.N.[Cl][Pt][Cl]` [cis-Platin, cis-dichlorodiammineplatinum, reference compound]: the “dissolving in water (in words)” value is “dissolving in water slowly”.
